Experiments:
[1] = Water retention property test 3 (long term); assay type: physicochemical; details: for Amount of moisture reduction in 0 to 24 h / Amount of moisture reduction in 24 to 96 h / Amount of moisture reduction per hour / Pre-test moisture rate / Moisture rate after 24 h / Moisture rate after 96 h / Amount of moisture reduction in 96 to 120 h / Moisture rate after 120 h: 80 wt % aqueous solution; for Amount of moisture reduction in 0 to 24 h / Amount of moisture reduction in 24 to 96 h / Amount of moisture reduction in 96 to 120 h: 1.0 g; for Amount of moisture reduction in 0 to 24 h / Amount of moisture reduction in 24 to 96 h / Amount of moisture reduction per hour / Moisture rate after 24 h / Moisture rate after 96 h / Amount of moisture reduction in 96 to 120 h / Moisture rate after 120 h: 40° C. and 25% RH; for Pre-test moisture rate: before the test; for Moisture rate after 24 h / Moisture rate after 96 h / Moisture rate after 120 h: unsealed
Experimental: In a water retention property test 3, an 80 wt % aqueous solution of each of the compounds C8, C11, C62, C63 and C64 was prepared, followed by using a Karl Fischer moisture meter to confirm that a moisture rate was 20.0 wt %. Next, 1.0 g of each of these samples was added to a screw tube, and this screw tube, while remaining unsealed, was then left to stand still in a thermo-hygrostat set to 40° C. and 25% RH. […] In addition, the water retention property was evaluated by calculating an amount of moisture reduction per hour (mg/h) based on each amount of moisture reduction (mg).

[2] = Water retention property and adherability with respect to healthy hair; parameters: species or system human; details: for Compound adhesion rate / Post-test moisture rate: healthy hair immersed 60 min in 80 wt % aqueous solution; for Post-test moisture rate: after 24 hours at 40° C., pre-test 7.6%; for Post-test moisture rate / Rate of reduction in moisture: 35 to 40% RH; for Rate of reduction in moisture: healthy hair, 80 wt % aqueous solution, 24 hours at 40° C.
Experimental: In the following evaluations, a human black hair produced by Beaulax Co., Ltd was used as a healthy hair. A damaged hair was prepared by repeatedly having the healthy hair permed and bleached three times.
An 80 wt % aqueous solution of each of the compounds B1 to B26 (content in terms of anhydride in the cases of the compounds B1 to B23) was prepared, followed by using a Karl Fischer moisture meter (KF-200 by Mitsubishi Chemical Analytech Co., Ltd.) to confirm that a moisture rate was 20.0 wt %. As a healthy hair, there was used a chemically untreated healthy hair (human black hair by Beaulax Co., Ltd). The moisture rate (pre-test moisture rate A) of the hair was measured by an infrared moisture meter (by Kett Electric Laboratory).
After immersion, the hair was taken out, and KimWipes were then used to wipe off the compound until a change in weight was no longer observed, followed by measuring the weight of the hair (post-test hair weight B). The hair from which the compound had been wiped off was then placed into a thermo-hygrostat set to 40° C. and 35 to 40% RH. A moisture rate after 24 hours (post-test moisture rate B) was then measured, followed by calculating a rate of reduction in moisture with the following formula. Likewise, instead of the 80 wt % aqueous solution, evaluation was also performed in a similar manner using only an ion-exchange water (comparative example B4).
Further, an adhesion rate of the compound adhering to the hair was calculated with the following formula. […]

[3] = Water confinement property test (barrier property); assay type: physicochemical; details: 80 wt % aqueous solution, 0.01 mL/cm^2 on filter paper, 40° C. and 25% RH, 24 hours
Experimental: Next, 20.0 g of an ion-exchange water was put into a 40 mL pierce vial bottle (by AS ONE Corporation.), followed by removing an inner lid (rubber plug) of the pierce vial bottle, placing on the pierce vial bottle the filter paper to which each sample had been applied, and then plugging the bottle with an outer lid.
Further, Wm1, Wm2, Sm1 and Sm2 in the formula below respectively represent the following numerical values.
Wm1: Weight of ion-exchange water in vial before storage (using filter paper to which only ion-exchange water had been applied)
Wm2: Weight of ion-exchange water in vial after 24 hours (using filter paper to which only ion-exchange water had been applied)
Sm1: Weight of ion-exchange water in vial before storage (using filter paper to which sample had been applied)
Sm2: Weight of ion-exchange water in vial after 24 hours (using filter paper to which sample had been applied)

[4] = Water retention property test 1; assay type: physicochemical; details: 80 wt % aqueous solution; for Water retention property test 1 Post-test moisture rate / Water retention property test 1 Rate of reduction in moisture / Post-test moisture rate / Rate of reduction in moisture: 24 hours at 40° C. and 25% RH; for Pre-test moisture rate: before the test (Karl Fischer); for Post-test moisture rate / Rate of reduction in moisture: unsealed
Experimental: A moisture rate after 24 hours was again measured (post-test moisture rate: B), followed by using the formula below to calculate a rate of reduction in moisture so as to evaluate the water retention property. • Pre-test moisture rate: A (%) • Post-test moisture rate: B (%)

CCCC[N+](CCCC)(CCCC)CCCC.[Br-] [Comparative example C13]
Amount of moisture reduction in 0 to 24 h ([1]; 0~24 h): 49.1 mg
Amount of moisture reduction in 24 to 96 h ([1]; 24~96 h): 145.8 mg
Amount of moisture reduction per hour ([1]; 0~24 h): 2.0 mg/h
Amount of moisture reduction per hour ([1]; 24~96 h): 2.0 mg/h
Pre-test moisture rate [1]: 20.0%
Moisture rate after 24 h [1]: 15.9%
Moisture rate after 96 h [1]: 0.7%

CCCCn1cc[n+](C)c1.F[B-](F)(F)F [Comparative example C14]
Amount of moisture reduction in 0 to 24 h ([1]; 0~24 h): 64.3 mg
Amount of moisture reduction in 24 to 96 h ([1]; 24~96 h): 134.4 mg
Amount of moisture reduction per hour ([1]; 0~24 h): 2.7 mg/h
Pre-test moisture rate [1]: 20.0%
Moisture rate after 24 h [1]: 14.5%
Moisture rate after 96 h [1]: 0.0%

OCC(O)CO [Comparative example C15]
Amount of moisture reduction in 0 to 24 h ([1]; 0~24 h): 24.6 mg
Amount of moisture reduction in 24 to 96 h ([1]; 24~96 h): 74.8 mg
Amount of moisture reduction in 96 to 120 h ([1]; 96~120 h): 25.0 mg
Amount of moisture reduction per hour ([1]; 0~24 h): 1.0 mg/h
Amount of moisture reduction per hour ([1]; 24~96 h): 1.0 mg/h
Amount of moisture reduction per hour ([1]; 96~120 h): 1.0 mg/h
Pre-test moisture rate [1]: 20.0%
Moisture rate after 24 h [1]: 18.0%
Moisture rate after 96 h [1]: 11.1%
Moisture rate after 120 h [1]: 8.6%

O [Compound B8]
Compound adhesion rate [2]: 1.3%
Post-test moisture rate [2]: 6.1%
Rate of reduction in moisture [2]: 20%

NC(CO)(CO)CO.O=C(O)CC(O)(CC(=O)O)C(=O)O [Compound B13]
Compound adhesion rate [2]: 2.3%
Post-test moisture rate [2]: 6.5%
Rate of reduction in moisture [2]: 15%

NC(CO)(CO)CO.O=C(O)CO [Compound B14]
Compound adhesion rate [2]: 1.3%
Post-test moisture rate [2]: 7.4%
Rate of reduction in moisture [2]: 3%

CC(=O)CCC(=O)O.NC(CO)(CO)CO [Compound B17]
Compound adhesion rate [2]: 6.9%
Post-test moisture rate [2]: 6.5%
Rate of reduction in moisture [2]: 15%

NC(CO)(CO)CO.O=C1OC(C(O)CO)C(O)=C1O (centres unmarked) [Compound B20]
Compound adhesion rate [2]: 2.1%
Post-test moisture rate [2]: 6.6%
Rate of reduction in moisture [2]: 14%

O [Compound B21]
Compound adhesion rate [2]: 1.1%
Post-test moisture rate [2]: 5.8%
Rate of reduction in moisture [2]: 24%

CCCCn1cc[n+](C)c1.[Cl-] [Compound B25, 1-butyl-3-methylimidazolium chloride, reference compound]
Compound adhesion rate [2]: 1.0%
Post-test moisture rate [2]: 4.0%
Rate of reduction in moisture [2]: 47%

CC(C)(C)CO [Compound C43]
Water evaporation inhibition rate [3]: 39.7%
Water retention property test 1 Pre-test moisture rate [4]: 20.0%
Water retention property test 1 Post-test moisture rate [4]: 19.3%
Water retention property test 1 Rate of reduction in moisture [4]: 4.4%

CC(C)(CO)CO [Compound C47]
Water evaporation inhibition rate [3]: 34.8%
Water retention property test 1 Pre-test moisture rate [4]: 20.0%
Water retention property test 1 Post-test moisture rate [4]: 19.2%
Water retention property test 1 Rate of reduction in moisture [4]: 4.7%

CC(CO)(CO)CO [Compound C50]
Water evaporation inhibition rate [3]: 39.1%
Pre-test moisture rate [4]: 20.0%
Post-test moisture rate [4]: 19.1%
Rate of reduction in moisture [4]: 4.4%

CC(CO)(CO)CO [Compound C51]
Water evaporation inhibition rate [3]: 35.6%
Pre-test moisture rate [4]: 20.0%
Post-test moisture rate [4]: 19.1%
Rate of reduction in moisture [4]: 4.5%

CC(CO)(CO)CO [Compound C52]
Water evaporation inhibition rate [3]: 36.8%
Pre-test moisture rate [4]: 20.0%
Post-test moisture rate [4]: 18.6%
Rate of reduction in moisture [4]: 7.1%

CC(CO)(CO)CO [Compound C53]
Water evaporation inhibition rate [3]: 34.6%
Pre-test moisture rate [4]: 20.0%
Post-test moisture rate [4]: 19.1%
Rate of reduction in moisture [4]: 4.4%

CC(CO)(CO)CO [Compound C54]
Water evaporation inhibition rate [3]: 30.3%
Pre-test moisture rate [4]: 20.0%
Post-test moisture rate [4]: 18.8%
Rate of reduction in moisture [4]: 5.8%

CC(CO)(CO)CO [Compound C55]
Water evaporation inhibition rate [3]: 34.1%
Pre-test moisture rate [4]: 20.0%
Post-test moisture rate [4]: 18.4%
Rate of reduction in moisture [4]: 7.9%

C[N+](C)(C)CCO.O=C1OC(C(O)CO)C([O-])=C1O (centres unmarked) [Compound C57]
Pre-test moisture rate [4]: 20.0%
Post-test moisture rate [4]: 19.0%
Rate of reduction in moisture [4]: 5.0%

C[N+](C)(C)CC(O)CC(=O)O.O=C1O[C@H]([C@@H](O)CO)C([O-])=C1O [Compound C58]
Pre-test moisture rate [4]: 20.0%
Post-test moisture rate [4]: 19.2%
Rate of reduction in moisture [4]: 4.1%

CC(=O)OCC[N+](C)(C)C.O=C1O[C@H]([C@@H](O)CO)C([O-])=C1O [Compound C59]
Pre-test moisture rate [4]: 20.0%
Post-test moisture rate [4]: 19.3%
Rate of reduction in moisture [4]: 3.5%

CC(O)C(=O)O.NCCCC(=O)O [Compound C60]
Pre-test moisture rate [4]: 20.0%
Post-test moisture rate [4]: 18.1%
Rate of reduction in moisture [4]: 9.9%

CC(O)C(=O)O.NCCCCCC(=O)O [Compound C61]
Pre-test moisture rate [4]: 20.0%
Post-test moisture rate [4]: 18.1%
Rate of reduction in moisture [4]: 9.9%

CCCCn1cc[n+](C)c1.F[B-](F)(F)F [Compound C63, 1-butyl-3-methylimidazolium tetrafluoroborate, reference compound]
Water evaporation inhibition rate [3]: 25.7%
Pre-test moisture rate [4]: 20.0%
Post-test moisture rate [4]: 11.7%
Rate of reduction in moisture [4]: 41.7%

CC(C)(CO)CO [Compound C65]
Water evaporation inhibition rate [3]: 39.4%

CC(N)(CO)CO.NCCCCCC(=O)O [Compound C76]
Water evaporation inhibition rate [3]: 35.7%

CC(CO)(CO)CO [Compound C77]
Water evaporation inhibition rate [3]: 35.4%

NC(CO)(CO)CO.O=C(O)CC(O)(CC(=O)O)C(=O)O [Compound C82]
Water evaporation inhibition rate [3]: 35.8%

CS(=O)(=O)O.NC(CO)(CO)CO [Compound C83]
Water evaporation inhibition rate [3]: 31.3%

CC(O)C(=O)O.NC(CO)CO (centres unmarked) [Working example C117]
Amount of moisture reduction in 0 to 24 h ([1]; 0~24 h): 6.7 mg
Amount of moisture reduction in 24 to 96 h ([1]; 24~96 h): 20.1 mg
Amount of moisture reduction in 96 to 120 h ([1]; 96~120 h): 4.0 mg
Amount of moisture reduction per hour ([1]; 0~24 h): 0.3 mg/h
Amount of moisture reduction per hour ([1]; 24~96 h): 0.3 mg/h
Amount of moisture reduction per hour ([1]; 96~120 h): 0.2 mg/h
Pre-test moisture rate [1]: 20.0%
Moisture rate after 24 h [1]: 19.5%
Moisture rate after 96 h [1]: 17.8%
Moisture rate after 120 h [1]: 15.8%
Moisture rate of hydrate [1]: 16.6%

CS(=O)(=O)O.NC(CO)CO [Working example C118]
Amount of moisture reduction in 0 to 24 h ([1]; 0~24 h): 6.5 mg
Amount of moisture reduction in 24 to 96 h ([1]; 24~96 h): 20.0 mg
Amount of moisture reduction in 96 to 120 h ([1]; 96~120 h): 4.1 mg
Amount of moisture reduction per hour ([1]; 0~24 h): 0.3 mg/h
Amount of moisture reduction per hour ([1]; 24~96 h): 0.3 mg/h
Amount of moisture reduction per hour ([1]; 96~120 h): 0.2 mg/h
Pre-test moisture rate [1]: 20.0%
Moisture rate after 24 h [1]: 19.4%
Moisture rate after 96 h [1]: 17.6%
Moisture rate after 120 h [1]: 15.4%
Moisture rate of hydrate [1]: 16.1%
